Assay results taken from US4105603A, “Peptides which effect release of hormones” (The Salk Institute for Biological Studies, priority 1977, dated 1978).
Non-standard residues stand in square brackets, D forms with d.

Assays:
[1] = tested on: rat anterior pituitary cells; test: In vitro bioassay: secretion of growth hormone by primary cultures of dissociated rat anterior pituitary cells; type: cell-based; details: cultured rat anterior pituitary cells, somatostatin = 100
Experimental: In vitro Bioassay: The effects of the various peptides of the invention were tested in vitro on the secretion of growth hormone by primary cultures of enzymatically dissociated rat anterior pituitary cells by the method of Vale et al., Endocrinology 91: p 562-571 (1972). The assay is made by treating pituitary glands removed from rats to separate cells therefrom. The cells are placed in culture dishes in Dulbecco's Modified Eagle Medium (Dulbecco et al., Virology, Vol. 8, p. 396, […]). Carbon dioxide gas and oxygen are supplied to the cell cultures which are maintained at 37° C for 4-5 days prior to use in the assay. Following media changes, cell cultures are incubated for a period of 4 hours and particular somatostatin peptides are added thereto. Radioimmunoassay analysis is used to determine the rate of growth hormone secretion which is expressed in nanograms per hour.
GH determinations were performed on tissue culture media utilizing the following reagents: NIAMDD rat GH standard (GH-RP-1), NIAMDD monkey anti-rat GH (GH-Serum-3), and highly purified rat GH for iodination.
(§1) All experiments were carried on in a randomized block design. Following analysis of variance difference between treatments were determined by the multiple range tests of Dunnett and Duncan. Potency values were calculated from four or six point bioassays.

glucagon secretion = test: In vivo bioassay: inhibition of glucagon release, portal vein plasma after i.v. peptide; design: species or system Sprague-Dawley-CD rats; details: rat, external jugular vein administration, somatostatin = 100
Experimental: (§2) An investigation of the effect of somatostatin, dihydrosomatostatin, (as controls) and the peptides of the invention to inhibit the release of glucagon and insulin was made as follows:
(§3) In vivo Bioassay: Male Sprague-Dawley-CD rats weighing 180-200 g housed in temperature and humidity controlled quarters with 14h light and 10h dark (light 0700-[…]) were used in all experiments. Animals were fed a standard ration and tap water ad libitum. Experiments were carried out at least 5 days after arrival of rats from the supplier between the hours 1400 to 1600. After ether anesthesia, peptides or saline were administered in a volume of 0.2 ml. via the external jugular vein. Animals remained anesthetized until the time of blood collection from the portal vein. […]
(§4) Plasma was stored at -20° C for insulin and glucagon determinations. Insulin levels were determined by the method of Herbert et al, […]. […] Glucagon was determined by the method of Faloona and Unger, in Jaffe et al ed., Methods of Hormone Radioimmunoassay, Academic Press, New York, 1974, p. […] was determined by the glucose oxidase method, utilizing a Beckman Glucose Analyzer.
as §1

insulin secretion = test: In vivo bioassay: inhibition of insulin release, portal vein plasma after i.v. peptide; design: species or system Sprague-Dawley-CD rats; details: rat, external jugular vein administration, somatostatin = 100
Experimental: as §2, §3, §4, §1

Row | Compound | percent effectiveness for inhibiting secretion of Growth Hormone, somatostatin taken as the base [1] [%] | percent effectiveness for inhibiting secretion of Glucagon, somatostatin taken as the base (glucagon secretion) [%] | percent effectiveness for inhibiting secretion of Insulin, somatostatin taken as the base (insulin secretion) [%]
1 | C[C@H](N)C(=O)NCC(=O)N[C@H]1CSSC[C@@H](C(=O)O)NC(=O)[C@H](CO)NC(=O)[C@H]([C@@H](C)O)NC(=O)[C@H](Cc2ccccc2)NC(=O)[C@H]([C@@H](C)O)NC(=O)[C@H](CCCCN)NC(=O)[C@H](Cc2c[nH]c3ccccc23)NC(=O)[C@H](Cc2ccccc2)NC(=O)[C@H](Cc2ccccc2)NC(=O)[C@H](CC(N)=O)NC(=O)[C@H](CCCCN)NC1=O [Somatostatin, somatostatin] | 100 | 100 | 100
2 | H-CFF[dW]KFFC-OH (cysteine pairing not given here) [desR1 D-Trp Phe desR4 desR5] | 6 | 100 | 80
